The source of these data is US20200397894A1, “COMPOSITIONS AND METHODS FOR TREATING CANCER” (University of Virginia Patent Foundation, priority 2016, published 2020).

The test system of assay [1] is non-malignant melanocytes PIG3V. As to the kind of experiment: Rereplication by FACS in non-malignant melanocytes. The assay is classed as cell-based, human. The note with it: 48 hours following treatment. How it is done:
The effects of pevonedistat, vemurafenib, and/or silencing of various cell cycle-associated proteins by siRNA on cell cycle distribution and rereplication were assessed by propidium iodide staining and flow cytometry of asynchronous melanoma cultures. Synchronization of cells was not employed to avoid bias and to be able to measure the impact of these perturbations on proliferating cancer cells. Briefly, asynchronous melanoma cell lines were treated with pevonedistat or vemurafenib, or transfected with si-CDT1, si-CDT2, si-SET8, si-p21, sigeminin, si-EMI1, or si-GL2 for a time ranging from 24 to 96 hours. Cells were washed with cold PBS, harvested, and fixed in 70% (v/v) ethanol. Cells were subsequently treated with 20 μg of DNase-free RNase and stained with propidium iodide according to instructions of the manufacturer. Samples were analyzed on a FACSCAN™ (Becton, Dickinson and Company, Franklin Lakes, N.J., United States of America) and G0-G1, S, and G2-M fractions were segmented, and apoptotic (sub-G1 DNA content) and rereplicating (>G2/M DNA content) fractions were determined using FLOWJO® (FLOWJO, LLC, Ashland, Oreg., United States of America) and ModFit (Verity Software House, Topsham, Me., United States of America) software.
On the technique in general: A flow cytometer gives signals particle by particle.

A further assay has as its system HNSCC cells. As to the kind of experiment: Colony formation and CYQUANT cell viability assays. The format is cell-based. To be noted: Homo sapiens. How it is done:
HNSCC cells were transfected with si-RNA (48 hours prior to first count) or treated with pevonedistat (24 hours prior to first count). 8×10^5 cells were seeded in 60 mm plates and cell proliferation was determined by staining with trypan blue and counting by COUNTESS™ Automated Cell Counter (INVITROGEN™, Carlsbad, Calif., United States of America). Depending on the cell growth rate, cell counts were recorded either every 24 or 48 hours, and growth curves were established.
The effect of pevonedistat treatment or transient silencing of CDT2, geminin, or EMI1 on cell proliferation or on radiation sensitivity was tested using clonogenic survival assays. Cells were transfected with the appropriate si-RNA 48 hours prior to seeding. Cells were then counted using COUNTESS™ Automated Cell Counter (INVITROGEN™, Carlsbad, Calif., United States of America) and were seeded at 15,000 cells/plate in 60 mm dishes. Cells were irradiated 24 hours after seeding with various doses and were cultured for 7-10 days. […] QUANTITY ONE® software (BioRad Laboratories, Inc., Hercules, Calif., United States of America) was used to quantify the number of colonies and survival curves were established based on the linear quadratic model, using the formula S=e^−αD-βD2; where S represents the surviving fraction and D the dose of irradiation. […]

Another assay deals with SqCC/Y1 HNSCC cells. The note with it: SqCC/Y1, 0.5 μM pevonedistat; cited from earlier work.
Assay [2] has as its system hTERT-transformed keratonocytes (OKF6-TERT2). The experiment in a line: Rereplication by FACS in control keratinocytes. The format is cell-based, human. How it is done:
The effect of pevonedistat treatment or CDT2, geminin, or EMI1 knockdown on the cell cycle (and induction of DNA rereplication) was assessed by flow cytometry with propidium iodide (PI) staining. Cells were harvested at 72 or 96 hours post-treatment with pevonedistat or post-transfection, respectively. Cells were collected, washed with PBS, and resuspended in ethanol (75%). Cells were subsequently treated with 20 μg of DNase-free RNase and stained with PI following the manufacturer's protocol. FACSCAN™ (Becton, Dickinson and Company, Franklin Lakes, N.J., United States of America) was used to analyze the samples and G0-G1, S, and G2-M fractions were segmented. Subsequent analysis using FLOWJO® (FLOWJO, LLC, Ashland, Oreg., United States of America) and ModFit (Verity Software House, Topsham, Me., United States of America) software was used to determine apoptotic and re-replicating fractions. Where indicated, Cal27 and FaDu cells were treated with pevonedistat for 48 hours and pulsed with BrdU (10 nM) for 1 hour in the dark prior to harvesting. […] Sampled were analyzed on a FACSCAN™ (Becton, Dickinson and Company, Franklin Lakes, N.J., United States of America), and different fractions of BrdU positive cells were determined using FLOWJO® (FLOWJO, LLC, Ashland, Oreg., United States of America) and ModFit (Verity Software House, Topsham, Me., United States of America) software.

The test system of assay [3] is cullin neddylation in Cal27 or FaDu cells. As to the kind of experiment: Immunoblotting of cullin neddylation. The assay is classed as cell-based, human. To be noted: 50 nM pevonedistat, 24 or 48 hours. The method, then:
HNSCC cells were lysed using radio-immunoprecipitation assay (RIPA) lysis buffer (50 mM Tris, pH 8.0; 150 mM NaCl, 1% NP-40; 0.5% sodium deoxycolate; 0.1% SDS; 1 mM Benzamidin-HCl; 0.5 μg/ml Leupeptin; 0.5 μg/ml Aprotinin; 1 μg/ml pepstatin; 20 mM NaF; 20 mM Na3VO4). Equal amounts of protein were electrophoretically separated in a polyacrylamide 8-12% gel (Bio-Rad Laboratories, Inc., Hercules, Calif., United States of America), trans-blotted to a nitrocellulose membrane, and incubated with primary antibodies for one hour at room temperature or overnight at 4° C. The immunoblot signals were detected by enhanced chemiluminescence (EMD Millipore Corporation, Billerica, Mass., United States of America).

As a reminder, the IC50 is the concentration at which inhibition is half-maximal.

For the molecule `NS(=O)(=O)OCC1CC(n2ccc3c(NC4CCc5ccccc54)ncnc32)CC1O` [pevonedistat, ((1S,2S,4R)-4-(4-((1S)-2,3-Dihydro-H-inden-1-ylamino)-7H-pyrrolo(2,3-d)pyrimidin-7-yl)-2-hydroxycyclopentyl)methyl sulphamate], the rereplication result in assay [1] is listed as “less than 3%”. Besides, the concentration for half-maximal inhibition (IC50) with HNSCC cells is ~50 nM. Besides, the “apoptosis (% of cells)” value with SqCC/Y1 HNSCC cells is 55%. For the same molecule, the DNA rereplication entry in assay [2] is “not observed”. The cullin neddylation entry in assay [3] is “inhibited cullin neddylation”.
